Results taken from the supplement of paper PMC10307832.

Assays:
Assay in all cases: relative viability (nuclei count vs DMSO), 5 days (fraction); higher = more cells survive
AZD1208 + OSI-027 = compound: N[C@@H]1CCCN(c2c(/C=C3\SC(=O)NC3=O)cccc2-c2ccccc2)C1 [AZD1208] + COc1cccc2cc(-c3nc([C@H]4CC[C@H](C(=O)O)CC4)n4ncnc(N)c34)[nH]c12 [OSI-027] (partner 0.5 µM)
How it was run: (§1)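 For relative viability, nuclei counts in treated wells were divided by those in vehicle wells. Lung cancer cell lines had been pin-tool dosed in 1536-well plates the day after seeding and cultured for 5 days, then fixed and stained in one step (final 0.05% Triton X-100, 1% formaldehyde, 1 ug/ml Hoechst) and imaged at 4×. Doses were one drug alone or a fixed anchor-drug dose plus five library-drug doses (not always all listed) in √10 steps, and values are duplicate-plate medians.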

XMD14-99 + OSI-027 = compound: CN1CCN(CC1)C2=CC(=C(C=C2)NC3=NC(=C(S3)C(=O)C4=C(C=CC=C4Cl)Cl)N)OC [XMD14-99] + COc1cccc2cc(-c3nc([C@H]4CC[C@H](C(=O)O)CC4)n4ncnc(N)c34)[nH]c12 [OSI-027] (partner 0.5 µM)
How it was run: as §1

XMD14-99 + Decitabine = compound: CN1CCN(CC1)C2=CC(=C(C=C2)NC3=NC(=C(S3)C(=O)C4=C(C=CC=C4Cl)Cl)N)OC [XMD14-99] + Nc1ncn([C@H]2C[C@H](O)[C@@H](CO)O2)c(=O)n1 [Decitabine] (partner 2 µM)
How it was run: as §1

XMD14-99 + Crizotinib = compound: CN1CCN(CC1)C2=CC(=C(C=C2)NC3=NC(=C(S3)C(=O)C4=C(C=CC=C4Cl)Cl)N)OC [XMD14-99] + C[C@@H](Oc1cc(-c2cnn(C3CCNCC3)c2)cnc1N)c1c(Cl)ccc(F)c1Cl [Crizotinib] (partner 1 µM)
How it was run: as §1

Row | Cell Line | relative viability (AZD1208 + OSI-027; first compound 0.08 µM) | relative viability (AZD1208 + OSI-027; first compound 0.253 µM) | relative viability (AZD1208 + OSI-027; first compound 0.8 µM) | relative viability (AZD1208 + OSI-027; first compound 2.53 µM) | relative viability (AZD1208 + OSI-027; first compound 8 µM) | relative viability (XMD14-99 + OSI-027; first compound 0.08 µM) | relative viability (XMD14-99 + OSI-027; first compound 0.8 µM) | relative viability (XMD14-99 + OSI-027; first compound 2.53 µM) | relative viability (XMD14-99 + OSI-027; first compound 8 µM) | relative viability (XMD14-99 + Decitabine; first compound 0.08 µM) | relative viability (XMD14-99 + Decitabine; first compound 0.8 µM) | relative viability (XMD14-99 + Decitabine; first compound 2.53 µM) | relative viability (XMD14-99 + Decitabine; first compound 8 µM) | relative viability (XMD14-99 + Crizotinib; first compound 0.08 µM) | relative viability (XMD14-99 + Crizotinib; first compound 0.8 µM) | relative viability (XMD14-99 + Crizotinib; first compound 2.53 µM) | relative viability (XMD14-99 + Crizotinib; first compound 8 µM)
1 | BEN | 0.301 | 0.254 | 0.278 | 0.294 | 0.238 | 0.29 | 0.295 | 0.312 | 0.264 | 0.853 | 0.701 | 0.707 | 0.558 | 0.789 | 0.718 | 0.761 | 0.647
2 | NCI-H2347 | 0.321 | 0.344 | 0.329 | 0.302 | 0.35 | 0.401 | 0.349 | 0.378 | 0.276 | 0.584 | 0.623 | 0.577 | 0.522 | 0.803 | 0.531 | 0.737 | 0.501
3 | 201T | 0.81 | 0.78 | 0.512 | 0.53 | 0.477 | 0.748 | 0.729 | 0.828 | 0.494 | 0.852 | 0.833 | 0.833 | 0.741 | 1.03 | 1.02 | 1.01 | 0.917
4 | NCI-H2170 | 0.751 | 0.653 | 0.636 | 0.625 | 0.535 | 0.709 | 0.772 | 0.65 | 0.621 | 0.49 | 0.423 | 0.444 | 0.395 | 1.14 | 1.21 | 1.26 | 0.937
5 | NCI-H520 | 0.207 | 0.258 | 0.189 | 0.179 | 0.188 | 0.251 | 0.262 | 0.231 | 0.206 | 0.465 | 0.468 | 0.483 | 0.44 | 0.734 | 0.694 | 0.724 | 0.648
6 | NCI-H727 | 0.576 | 0.561 | 0.414 | 0.468 | 0.548 | 0.617 | 0.493 | 0.584 | 0.383 | 0.881 | 0.805 | 0.857 | 0.599 | 0.889 | 0.704 | 0.561 | 0.381
7 | HCC-15 | 0.63 | 0.673 | 0.491 | 0.467 | 0.437 | 0.606 | 0.622 | 0.638 | 0.463 | 0.668 | 0.605 | 0.599 | 0.415 | 0.773 | 0.816 | 0.807 | 0.605
8 | ABC-1 | 0.417 | 0.444 | 0.487 | 0.377 | 0.436 | 0.431 | 0.551 | 0.382 | 0.291 | 1.1 | 1.05 | 0.679 | 0.935 | 1 | 1.07 | 1.04 | 0.802
9 | LCLC-103H | 0.485 | 0.371 | 0.378 | 0.382 | 0.376 | 0.409 | 0.417 | 0.465 | 0.406 | 0.715 | 0.739 | 0.721 | 0.682 | 0.986 | 1.02 | 1.01 | 0.989
10 | NCI-H460 | 0.59 | 0.853 | 0.633 | 0.647 | 0.477 | 0.626 | 0.626 | 0.646 | 0.269 | 0.461 | 0.486 | 0.495 | 0.385 | 0.876 | 0.888 | 0.955 | 0.667
11 | EPLC-272H | 0.255 | 0.289 | 0.276 | 0.247 | 0.281 | 0.311 | 0.32 | 0.282 | 0.263 | 0.386 | 0.41 | 0.353 | 0.314 | 0.923 | 0.813 | 1.04 | 0.927
